Reference: PubChem BioAssay (NCI)
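1) Cells in 96-well plates. 2) Compound, 48 h, 5 concentrations. 3) Linear interpolation between surrounding doses. 4) Unreached endpoint = highest concentration. GI50: concentration for 50% inhibition of growth. TGI is the concentration that stops growth completely.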

Tests used:
Test in all cases: inhibition of tumour cell growth, NCI panel, 48 h
KM12 colon = test system: KM12 colon
UO-31 renal = test system: UO-31 renal
MDA-MB-231 breast = test system: MDA-MB-231 breast
OVCAR-5 ovarian = test system: OVCAR-5 ovarian
IGROV1 ovarian = test system: IGROV1 ovarian
RPMI-8226 leukemia = test system: RPMI-8226 leukemia
UACC-257 melanoma = test system: UACC-257 melanoma
K-562 leukemia = test system: K-562 leukemia
PC-3 prostate = test system: PC-3 prostate
NCI-H226 lung = test system: NCI-H226 lung
COLO 205 colon = test system: COLO 205 colon
EKVX NSCLC = test system: EKVX NSCLC
TK-10 renal = test system: TK-10 renal
NCI/ADR-RES ovarian = test system: NCI/ADR-RES ovarian
SW-620 colon = test system: SW-620 colon
HCT-15 colon = test system: HCT-15 colon
NCI-H460 lung = test system: NCI-H460 lung
OVCAR-8 ovarian = test system: OVCAR-8 ovarian
HOP-62 NSCLC = test system: HOP-62 NSCLC
HS 578T breast = test system: HS 578T breast
SR leukemia = test system: SR leukemia
HCT-116 colon = test system: HCT-116 colon
T-47D breast = test system: T-47D breast
M14 melanoma = test system: M14 melanoma
SK-MEL-28 melanoma = test system: SK-MEL-28 melanoma
DU-145 prostate = test system: DU-145 prostate
HT29 colon = test system: HT29 colon
ACHN renal = test system: ACHN renal
A549 NSCLC = test system: A549 NSCLC
A498 renal = test system: A498 renal
BT-549 breast = test system: BT-549 breast
U251 CNS = test system: U251 CNS
SNB-75 CNS = test system: SNB-75 CNS
MCF7 breast = test system: MCF7 breast
MDA-MB-435 = test system: MDA-MB-435
786-0 renal = test system: 786-0 renal
CCRF-CEM leukemia = test system: CCRF-CEM leukemia
LOX IMVI melanoma = test system: LOX IMVI melanoma
SK-OV-3 ovarian = test system: SK-OV-3 ovarian
SK-MEL-2 melanoma = test system: SK-MEL-2 melanoma
SNB-19 CNS = test system: SNB-19 CNS
OVCAR-3 ovarian = test system: OVCAR-3 ovarian
UACC-62 melanoma = test system: UACC-62 melanoma
HCC-2998 colon = test system: HCC-2998 colon
SK-MEL-5 melanoma = test system: SK-MEL-5 melanoma
RXF 393 renal = test system: RXF 393 renal
SF-539 CNS = test system: SF-539 CNS
SF-268 CNS = test system: SF-268 CNS
MALME-3M melanoma = test system: MALME-3M melanoma
NCI-H522 lung = test system: NCI-H522 lung
NCI-H23 lung = test system: NCI-H23 lung
SF-295 CNS = test system: SF-295 CNS
OVCAR-4 ovarian = test system: OVCAR-4 ovarian
MOLT-4 leukemia = test system: MOLT-4 leukemia
SN12C renal = test system: SN12C renal

`CCn1c(-c2cc3c([nH]c4ccccc43)c(-c3cccc(O)c3)n2)n[nH]c1=S` showed a GI50 (KM12 colon) of 3.24 µM, a TGI (KM12 colon) of 12.4 µM and a GI50 (UO-31 renal) of 2.24 µM. It also gave a TGI (UO-31 renal) of 11.8 µM, a GI50 (MDA-MB-231 breast) of 2.79 µM and a TGI (MDA-MB-231 breast) of 15.6 µM. For the same compound, the GI50 (OVCAR-5 ovarian) was 6.34 µM, the TGI (OVCAR-5 ovarian) was 32.9 µM and the GI50 (IGROV1 ovarian) was 4.23 µM. The TGI (IGROV1 ovarian) was 35.5 µM, the GI50 (RPMI-8226 leukemia) was 2.5 µM and the TGI (RPMI-8226 leukemia) was 8.78 µM. For the same compound, the GI50 (UACC-257 melanoma) was 4.11 µM, the TGI (UACC-257 melanoma) was 16.4 µM and the GI50 (K-562 leukemia) was 1.88 µM. It also gave a TGI (K-562 leukemia) of over 100 µM, a GI50 (PC-3 prostate) of 2.77 µM and a TGI (PC-3 prostate) of 13.3 µM. The GI50 (NCI-H226 lung) was 6.45 µM, the TGI (NCI-H226 lung) was 55.8 µM and the GI50 (COLO 205 colon) was 7.65 µM. The TGI (COLO 205 colon) was 24.3 µM, the GI50 (EKVX NSCLC) was 3.45 µM and the TGI (EKVX NSCLC) was 14.5 µM. It also gave a GI50 (TK-10 renal) of 3.64 µM, a TGI (TK-10 renal) of 14.8 µM and a GI50 (NCI/ADR-RES ovarian) of 3.15 µM. The TGI (NCI/ADR-RES ovarian) was 42 µM, the GI50 (SW-620 colon) was 4.15 µM and the TGI (SW-620 colon) was 18.9 µM. It also gave a GI50 (HCT-15 colon) of 3.37 µM, a TGI (HCT-15 colon) of 16.1 µM and a GI50 (NCI-H460 lung) of 3.04 µM. For the same compound, the TGI (NCI-H460 lung) was 10.7 µM, the GI50 (OVCAR-8 ovarian) was 3.96 µM and the TGI (OVCAR-8 ovarian) was 31 µM. For the same compound, the GI50 (HOP-62 NSCLC) was 4.71 µM, the TGI (HOP-62 NSCLC) was 16 µM and the GI50 (HS 578T breast) was 2.21 µM. For the same compound, the TGI (HS 578T breast) was 9.17 µM, the GI50 (SR leukemia) was 1.67 µM and the TGI (SR leukemia) was 6.97 µM. For the same compound, the GI50 (HCT-116 colon) was 3.88 µM, the TGI (HCT-116 colon) was 15 µM and the GI50 (T-47D breast) was 2.36 µM. It also gave a TGI (T-47D breast) of 9.12 µM, a GI50 (M14 melanoma) of 2.57 µM and a TGI (M14 melanoma) of 11.6 µM. The GI50 (SK-MEL-28 melanoma) was 2.63 µM, the TGI (SK-MEL-28 melanoma) was 12.3 µM and the GI50 (DU-145 prostate) was 4.87 µM. The TGI (DU-145 prostate) was 16.7 µM, the GI50 (HT29 colon) was 2.74 µM and the TGI (HT29 colon) was 6.97 µM. The GI50 (ACHN renal) was 3.02 µM, the TGI (ACHN renal) was 10.1 µM and the GI50 (A549 NSCLC) was 4 µM. For the same compound, the TGI (A549 NSCLC) was 18.8 µM, the GI50 (A498 renal) was 0.327 µM and the TGI (A498 renal) was 4.38 µM. For the same compound, the GI50 (BT-549 breast) was 3.51 µM, the TGI (BT-549 breast) was 25.9 µM and the GI50 (U251 CNS) was 3.18 µM. For the same compound, the TGI (U251 CNS) was 15.1 µM, the GI50 (SNB-75 CNS) was 1.26 µM and the TGI (SNB-75 CNS) was 4.85 µM. It also gave a GI50 (MCF7 breast) of 2.79 µM, a TGI (MCF7 breast) of 14 µM and a GI50 (MDA-MB-435) of 0.0496 µM. The TGI (MDA-MB-435) was 2.94 µM, the GI50 (786-0 renal) was 2.29 µM and the TGI (786-0 renal) was 6.31 µM. The GI50 (CCRF-CEM leukemia) was 2.93 µM, the TGI (CCRF-CEM leukemia) was 12.4 µM and the GI50 (LOX IMVI melanoma) was 2.93 µM. For the same compound, the TGI (LOX IMVI melanoma) was 12.7 µM, the GI50 (SK-OV-3 ovarian) was 4.32 µM and the TGI (SK-OV-3 ovarian) was 17.5 µM. It also gave a GI50 (SK-MEL-2 melanoma) of 2.05 µM, a TGI (SK-MEL-2 melanoma) of 5.81 µM and a GI50 (SNB-19 CNS) of 4.28 µM. For the same compound, the TGI (SNB-19 CNS) was 16.6 µM, the GI50 (OVCAR-3 ovarian) was 3.13 µM and the TGI (OVCAR-3 ovarian) was 11.4 µM. It also gave a GI50 (UACC-62 melanoma) of 1.95 µM, a TGI (UACC-62 melanoma) of 7.35 µM and a GI50 (HCC-2998 colon) of 4.77 µM. It also gave a TGI (HCC-2998 colon) of 17.5 µM, a GI50 (SK-MEL-5 melanoma) of 1.45 µM and a TGI (SK-MEL-5 melanoma) of 3.06 µM. The GI50 (RXF 393 renal) was 2.01 µM, the TGI (RXF 393 renal) was 6.5 µM and the GI50 (SF-539 CNS) was 2.42 µM. It also gave a TGI (SF-539 CNS) of 9.27 µM, a GI50 (SF-268 CNS) of 4.04 µM and a TGI (SF-268 CNS) of 17.4 µM. The GI50 (MALME-3M melanoma) was 2.56 µM, the TGI (MALME-3M melanoma) was 11.4 µM and the GI50 (NCI-H522 lung) was 2.02 µM. It also gave a TGI (NCI-H522 lung) of 7.07 µM, a GI50 (NCI-H23 lung) of 3.11 µM and a TGI (NCI-H23 lung) of 13.2 µM. It also gave a GI50 (SF-295 CNS) of 3.24 µM, a TGI (SF-295 CNS) of 22.8 µM and a GI50 (OVCAR-4 ovarian) of 3.12 µM. It also gave a TGI (OVCAR-4 ovarian) of 13.1 µM, a GI50 (MOLT-4 leukemia) of 2.38 µM and a TGI (MOLT-4 leukemia) of 6.77 µM. For the same compound, the GI50 (SN12C renal) was 4.02 µM and the TGI (SN12C renal) was 22.1 µM.
